System: HSSY-II complex spheroid growth, percent test/control
Assay: Anticancer human tumor HSSY-II cell line growth inhibition [Asc];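 further: spheroids exposed to drug for 7 days before reading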
Conditions: for IC50: curve of first compound; for viability, T/C: stronger effect = lower value; active means viability on the fitted dose curve at most 10% of control; inactive means the rest
Outline: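 Complex solid-tumor spheroids incorporating human endothelial and mesenchymal stem cells received single agents or combinations over half-log dilution ranges anchored to clinical Cmax.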

[1] = second compound 0.1 µM, first compound 0.00316 µM
[2] = second compound 0.1 µM, first compound 0.01 µM
[3] = second compound 0.1 µM, first compound 0.0316 µM
[4] = second compound 0.1 µM, first compound 0.1 µM
[5] = second compound 0.316 µM, first compound 0.00316 µM
[6] = second compound 0.316 µM, first compound 0.01 µM
[7] = second compound 0.316 µM, first compound 0.0316 µM
[8] = second compound 0.316 µM, first compound 0.1 µM
[9] = second compound 1 µM, first compound 0.00316 µM
[10] = second compound 1 µM, first compound 0.01 µM
[11] = second compound 1 µM, first compound 0.0316 µM
[12] = second compound 1 µM, first compound 0.1 µM
[13] = second compound 3.16 µM, first compound 0.00316 µM
[14] = second compound 3.16 µM, first compound 0.01 µM
[15] = second compound 3.16 µM, first compound 0.0316 µM
[16] = second compound 3.16 µM, first compound 0.1 µM
[17] = second compound 10 µM, first compound 0.00316 µM
[18] = second compound 10 µM, first compound 0.01 µM
[19] = second compound 10 µM, first compound 0.0316 µM
[20] = second compound 10 µM, first compound 0.1 µM

NC(=O)C(=Cn1cnc(-c2cc(C(F)(F)F)cc(C(F)(F)F)c2)n1)c1cncnc1 + Cc1c(S(C)(=O)=O)c(-c2cc(F)cc(N3CCN(c4ccc(NS(=O)(=O)c5ccc(NC(CCN6CCC(C(=O)OCCCP(=O)(O)O)CC6)CSc6ccccc6)c(S(=O)(=O)C(F)(F)F)c5)cc4)CC3)c2)c(-c2ccc(Cl)cc2)n1C(C)C
0.0151 µM: IC50 (second compound 3.16 µM)
0.0133 µM: IC50 (second compound 10 µM)
0.0183 µM: IC50 (second compound 0.316 µM)
0.0179 µM: IC50 (second compound 0.1 µM)
inactive: viability, T/C (second compound 0.1 µM, first compound 0.000949 µM) 87.7% | viability, T/C (second compound 0.1 µM, first compound 0.003 µM) 86% | viability, T/C (second compound 0.1 µM, first compound 0.00949 µM) 65.4% | viability, T/C (second compound 0.1 µM, first compound 0.03 µM) 37.4% | viability, T/C (second compound 0.1 µM, first compound 0.0949 µM) 9.64% | viability, T/C (second compound 0.316 µM, first compound 0.000949 µM) 99.8% | viability, T/C (second compound 0.316 µM, first compound 0.003 µM) 83.5% | viability, T/C (second compound 0.316 µM, first compound 0.00949 µM) 71.9% | viability, T/C (second compound 0.316 µM, first compound 0.03 µM) 36.1% | viability, T/C (second compound 1 µM, first compound 0.000949 µM) 96.1% | viability, T/C (second compound 1 µM, first compound 0.003 µM) 80% | viability, T/C (second compound 1 µM, first compound 0.00949 µM) 61.3% | viability, T/C (second compound 1 µM, first compound 0.03 µM) 30% | viability, T/C (second compound 3.16 µM, first compound 0.000949 µM) 91.1% | viability, T/C (second compound 3.16 µM, first compound 0.003 µM) 84.3% | viability, T/C (second compound 3.16 µM, first compound 0.00949 µM) 68.1% | viability, T/C (second compound 3.16 µM, first compound 0.03 µM) 24% | viability, T/C (second compound 10 µM, first compound 0.000949 µM) 84.9% | viability, T/C (second compound 10 µM, first compound 0.003 µM) 89.6% | viability, T/C (second compound 10 µM, first compound 0.00949 µM) 56.5% | viability, T/C (second compound 10 µM, first compound 0.03 µM) 26.9%
active: viability, T/C (second compound 0.1 µM, first compound 0.3 µM) 0.51% | viability, T/C (second compound 0.316 µM, first compound 0.0949 µM) 6% | viability, T/C (second compound 0.316 µM, first compound 0.3 µM) 0.34% | viability, T/C (second compound 1 µM, first compound 0.0949 µM) 5.9% | viability, T/C (second compound 1 µM, first compound 0.3 µM) 0.23% | viability, T/C (second compound 3.16 µM, first compound 0.0949 µM) 2.17% | viability, T/C (second compound 3.16 µM, first compound 0.3 µM) 0.24% | viability, T/C (second compound 10 µM, first compound 0.0949 µM) 1.88% | viability, T/C (second compound 10 µM, first compound 0.3 µM) 0.28%
0.0136 µM: IC50 (second compound 1 µM)

NC1CCC(NC2CC2c2ccccc2)CC1 (stereo not given) + Cc1c(S(C)(=O)=O)c(-c2cc(F)cc(N3CCN(c4ccc(NS(=O)(=O)c5ccc(NC(CCN6CCC(C(=O)OCCCP(=O)(O)O)CC6)CSc6ccccc6)c(S(=O)(=O)C(F)(F)F)c5)cc4)CC3)c2)c(-c2ccc(Cl)cc2)n1C(C)C
inactive: viability, T/C (second compound 0.1 µM, first compound 0.000316 µM) 58.9% | viability, T/C (second compound 0.1 µM, first compound 0.001 µM) 69.2% | viability, T/C [1] 64% | viability, T/C [2] 56.5% | viability, T/C [3] 60.3% | viability, T/C [4] 66.5% | viability, T/C (second compound 0.316 µM, first compound 0.000316 µM) 77% | viability, T/C (second compound 0.316 µM, first compound 0.001 µM) 67.3% | viability, T/C [5] 58.9% | viability, T/C [6] 60.6% | viability, T/C [7] 60% | viability, T/C [8] 64.5% | viability, T/C (second compound 1 µM, first compound 0.000316 µM) 70.3% | viability, T/C (second compound 1 µM, first compound 0.001 µM) 60.8% | viability, T/C [9] 57.5% | viability, T/C [10] 59% | viability, T/C [11] 60.6% | viability, T/C [12] 62.8% | viability, T/C (second compound 3.16 µM, first compound 0.000316 µM) 73.1% | viability, T/C (second compound 3.16 µM, first compound 0.001 µM) 62.1% | viability, T/C [13] 60.8% | viability, T/C [14] 61.1% | viability, T/C [15] 59.9% | viability, T/C [16] 61.4% | viability, T/C (second compound 10 µM, first compound 0.000316 µM) 66% | viability, T/C (second compound 10 µM, first compound 0.001 µM) 66.5% | viability, T/C [17] 70.2% | viability, T/C [18] 57.9% | viability, T/C [19] 62.3% | viability, T/C [20] 66.6%
> 0.1 µM: IC50 (second compound 0.1 µM) | IC50 (second compound 0.316 µM) | IC50 (second compound 1 µM) | IC50 (second compound 3.16 µM) | IC50 (second compound 10 µM)

O=C(c1ccc(F)c(F)c1Nc1ccc(I)cc1F)N1CC(O)([C@@H]2CCCCN2)C1 + Cc1c(S(C)(=O)=O)c(-c2cc(F)cc(N3CCN(c4ccc(NS(=O)(=O)c5ccc(NC(CCN6CCC(C(=O)OCCCP(=O)(O)O)CC6)CSc6ccccc6)c(S(=O)(=O)C(F)(F)F)c5)cc4)CC3)c2)c(-c2ccc(Cl)cc2)n1C(C)C
0.575 µM: IC50 (second compound 0.316 µM)
0.566 µM: IC50 (second compound 0.1 µM)
inactive: viability, T/C [1] 97.4% | viability, T/C [2] 111% | viability, T/C [3] 106% | viability, T/C [4] 112% | viability, T/C (second compound 0.1 µM, first compound 0.316 µM) 77.6% | viability, T/C (second compound 0.1 µM, first compound 1 µM) 22.9% | viability, T/C [5] 110% | viability, T/C [6] 107% | viability, T/C [7] 99.5% | viability, T/C [8] 117% | viability, T/C (second compound 0.316 µM, first compound 0.316 µM) 79.3% | viability, T/C (second compound 0.316 µM, first compound 1 µM) 22.9% | viability, T/C [9] 115% | viability, T/C [10] 110% | viability, T/C [11] 114% | viability, T/C [12] 110% | viability, T/C (second compound 1 µM, first compound 0.316 µM) 81.8% | viability, T/C (second compound 1 µM, first compound 1 µM) 20.8% | viability, T/C [13] 107% | viability, T/C [14] 101% | viability, T/C [15] 105% | viability, T/C [16] 98.7% | viability, T/C (second compound 3.16 µM, first compound 0.316 µM) 71.8% | viability, T/C (second compound 3.16 µM, first compound 1 µM) 19.6% | viability, T/C [17] 96.2% | viability, T/C [18] 96.4% | viability, T/C [19] 104% | viability, T/C [20] 104% | viability, T/C (second compound 10 µM, first compound 0.316 µM) 81.7% | viability, T/C (second compound 10 µM, first compound 1 µM) 18.1%
0.576 µM: IC50 (second compound 1 µM)
0.563 µM: IC50 (second compound 10 µM)
0.511 µM: IC50 (second compound 3.16 µM)
